Values joined by “and” are separate entries in the source; they are usually repeats but may differ in a detail not shown here. Equal entries are not always repeated. Where two headings read alike, the source gives them in different places.

The subject of test [1] is AML (Acute myeloid leukemia) PDCs, M4 subtype (SB 33866). Kind of test: Anti-proliferation assay on AML PDCs. Conditions: for Inhibitory Concentration IC75 / Inhibitory Concentration IC25 / IC50: AML cells (M4); for Inhibitory Concentration IC25: calculated using IC50 and hill slope; for IC50: read-out: Inhibitory Concentration IC50; for inhibition at 10 µM: assay drug control @ 10 uM. It is filed as cell-based, human. The procedure: Anti-proliferation assays were performed on 6 types of primary patient-derived cancer cells (PDCs) from 6 different human donors, as described in Table 1:
Tests were performed in 384-well plates (24×16), using 1250 to 10,000 cells/well depending on the size and proliferation rate of different PDCs, in 30 ul of culture media (DMEM/F12 with serum and growth factors), with control wells set aside on each plate for media alone (4 wells), untreated PDCs (4 wells), and for PDCs treated with 10 ul of a known anti-cancer drug as a control. […] The outermost rows/columns of the plates were filled with PBS (pH 7.4) to avoid an edge-effect and were considered as blanks.
Standardized aqueous extracts identified in Table 2 were prepared in main stock solutions by dissolving 1 mg of extract in 1 ml PBS (phosphate-buffered saline, pH 7.4).
Anti-Proliferation Assay Protocol: 30 ul of cells were plated at the density of 1250 to 10,000 cells/well. The plate was incubated in a CO2 incubator for 0/N incubation for 24 hours. […] Final assay concentrations of made from stock solutions of standardized aqueous extracts identified in Table 2 were 100 ug/ml, 30 ug/ml, and 10 ug/ml. Since 10 ul extract was added to 30 ul of cell suspension, it diluted 4 times, so to maintain the final assay concentrations, 4× concentrated extract solutions (400 ug/ml, 120 ug/ml, and 40 ug/mo) were prepared from main stock (1 mg/ml) and added to the plate. In all experiments, 10 ul of 4 times concentrated stock (4×) was added to wells containing 30 ul of cell suspension to achieve final assay concentrations at 1X.
Once extracts were added to incubated cells and mixed gently, the plate was given a brief spin and incubated in the CO2 incubator for 72 hours. The plate was removed from the incubator and 10 ul of detection reagent (CellTiterGlo®; Promega Corporation, Wisconsin, USA) added to each well of the 384 well plate. The plate was incubated (10 min) and luminescence counts measured, with luminescence produced proportional to the number of viable (living, metabolically active) cells for each assay. The assay described above is a two-dimensional (2D) assay.
In this Example, AML drugs were used as disease specific controls.
As discussed above in Example I, 6 extracts (Ayuflex®, Capros®, Phyto-BGS®, PrimaVie®, Sensoril®, and Ayuric®) were tested on AML PDC-SB cells (33866, M-4 type, subject) at 3 concentrations: 100 ug/ml, 30 ug/ml, and 10 ug/ml.

The next test concerns AML cell line HL60. Kind of test: Anti-proliferation assay on HL60 AML cells. It is filed as cell-based. Conditions: for IC25 / IC75: potential dosing for further experiments. The procedure: 2500 cells were plated per well in 384 well plates. […] CellTiter Glo was used as a detection reagent. Extracts were incubated with the AML HL60 cells for 72 hours.
Test [2] concerns Glioma PDCs (Glioblastoma Grade IV). The test is described as follows: Anti-proliferation assay (CellTiterGlo, 72 h) on glioma PDCs. It is filed as cell-based, human. The procedure: (§1) The outermost rows/columns of the plates were filled with PBS (pH 7.4) to avoid an edge-effect and were considered as blanks. Standardized aqueous extracts identified in Table 2 were prepared in main stock solutions by dissolving 1 mg of extract in 1 ml PBS (phosphate-buffered saline, pH 7.4). […] The plate was incubated in a CO2 incubator for 0/N incubation for 24 hours. […] Once extracts were added to incubated cells and mixed gently, the plate was given a brief spin and incubated in the CO2 incubator for 72 hours. The plate was removed from the incubator and 10 ul of detection reagent (CellTiterGlo®; Promega Corporation, Wisconsin, USA) added to each well of the 384 well plate. […] The assay described above is a two-dimensional (2D) assay.
A general note: Cellular ATP, detected with luciferase, serves as a proxy for viable cell number.

The test system of test [3] is Breast Cancer PDCs, ER/PR+ Her2 equivocal (HR+). Kind of test: Anti-proliferation assay on breast cancer HR+ PDCs. It is filed as cell-based, human. The following applies: drug alone @ 10 uM; for inhibition at 10 µM: Homo sapiens. The procedure:
as §1

Test [4] relates to Breast Cancer PDCs, ER/PR− Her2+ (Her2+). The test is described as follows: Anti-proliferation assay on breast cancer Her2+ PDCs. It is filed as cell-based, human. The following applies: drug alone @ 10 uM; for inhibition at 10 µM: Homo sapiens. The procedure: as §1
Test [5] relates to Breast Cancer PDCs, Triple negative (TN), SB 36344. Kind of test: Anti-proliferation assay on breast cancer TN PDCs. It is filed as cell-based, human. Conditions: drug alone @ 10 uM; for inhibition at 10 µM: Homo sapiens. The procedure:
as §1

The test system of test [6] is Glioma SB 32833 Glioblastoma Grade IV patient derived cells. The test is described as follows: Anti-proliferation assay on glioma PDCs SB 32833. It is filed as cell-based. The following applies: Homo sapiens; for inhibition at 10 µM: drug @ 10 uM; for inhibition at 100 µM: Temozolomide @ 100 uM. The procedure: The anti-cancer activity of AyuFlex®, Capros®, and Ayuric® was further tested on two other glioma PDCs taken from 2-3 different subjects (SB 6129, SB 32833 (person)). […] Also, the anti-cancer activity of AyuFlex®, Capros®, and Ayuric® was further tested on existing glioblastoma cell line U87 MG, to allow comparisons with other compositions known in the art. AyuFlex®, Capros®, and/or Ayuric® were incubated with the new PDC lines and the U87 MG cell line for 72 hours, as described in Example I above.
Table 68 relates to FIG. 31, a graph showing the efficacy of AyuFlex®, Capros®, and/or Ayuric® on Glioma SB 32833 Glioblastoma Grade IV patient derived cells, in a combination study.

[7] abbreviates: read-out: % Inhibition, single replicates.

Consider `Nc1ccn([C@@H]2O[C@H](CO)[C@@H](O)[C@@H]2O)c(=O)n1` [Cytarabine, cytarabine], for which, in test [1], the “Inhibitory Concentration IC75” value came out at 0.47 µM. Further, in test [1], the “Inhibitory Concentration IC25” value was 0.023 µM. The inhibition at 3 µM was 99% in test [1] (Homo sapiens, drug alone 3 uM, read-out: inhibition of AML proliferation); 99% in test [1] (Homo sapiens, drug alone @ 3 uM, read-out: % Inhibition Avg); 99% in test [1] (Homo sapiens, drug alone @ 3 uM, read-out: % Inhibition n1); 99% in test [1] (Homo sapiens, drug alone @ 3 uM, read-out: % Inhibition n2); 99% in test [1] (Homo sapiens, drug alone @ 3 uM, read-out: % Inhibition n3); not below 90% in the test on AML cell line HL60 (Homo sapiens, HL-60). Moreover, the IC50 came out at 0.104 µM in test [1] (Homo sapiens) and 0.567 µM with AML cell line HL60 (Homo sapiens, HL-60, dose-response curve, FIG. 35). The IC25 with AML cell line HL60 (HL60 AML cells) worked out at 0.298 µM. In the test on AML cell line HL60 (HL60 AML cells), this compound returned an IC75 of 1.08 µM.

Consider `CS(=O)(=O)N1CCN(Cc2cc3nc(-c4cccc5[nH]ncc45)nc(N4CCOCC4)c3s2)CC1` [GDC-0941, pictilisib], for which the inhibition at 10 µM in test [2] (Homo sapiens, drug alone @ 10 uM, read-out: % Inhibition Avg) was 81%; in test [2] (Homo sapiens, drug alone @ 10 uM, read-out: % Inhibition, single replicates), 83%; in test [3] (read-out: % Inhibition Avg), 68%; in test [3] (setting [7]), 70%; in test [4] (read-out: % Inhibition Avg), 70%; in test [4] (setting [7]), 71%. The inhibition at 10 µM in test [5] (read-out: % Inhibition Avg) stood at 83%; in test [5] (setting [7]), 84%; in test [1] (Homo sapiens, read-out: % Inhibition Avg), 59%; in test [1] (Homo sapiens, read-out: % Inhibition n1) it was 56%; in test [1] (Homo sapiens, read-out: % Inhibition n2) it was 63%; in test [6] (read-out: % Inhibition Avg), 100%. Also, the inhibition at 10 µM in test [6] (read-out: % Inhibition n1), in test [6] (read-out: % Inhibition n2) and in test [6] (read-out: % Inhibition n3) was 100% throughout. For the same compound, the “% Inhibition, single replicates” value in test [2] (drug alone @ 10 uM, 10 µM) turned out to be 79%; in test [3] (10 µM), 67%; in test [4] (10 µM), 69%; in test [5] (10 µM) it was 82%.

The compound `Cn1nnc2c(C(N)=O)ncn2c1=O` [Temozolomide, temozolomide] came in with an inhibition at 30 µM in test [2] (Homo sapiens, Temozolomide alone @ 30 uM) of 24%. The inhibition at 100 µM worked out at 32% in test [2] (Homo sapiens, Temozolomide alone @ 100 uM, read-out: % Inhibition Avg); 41% in test [2] (Homo sapiens, Temozolomide alone @ 100 uM, read-out: % Inhibition, single replicates); 27% in test [6] (read-out: % Inhibition Avg); 41% in test [6] (read-out: % Inhibition n1); 21% in test [6] (read-out: % Inhibition n2); 18% in test [6] (read-out: % Inhibition n3). Further, the inhibition at 300 µM in test [2] (Homo sapiens, Temozolomide alone @ 300 uM, read-out: % Inhibition Avg) is 19%; in test [2] (Homo sapiens, Temozolomide alone @ 300 uM, read-out: % Inhibition, single replicates), 28%. Further, the “% Inhibition, single replicates” value is 16% and 15% in test [2] (Temozolomide alone @ 30 uM, 30 µM); 27% and 29% in test [2] (Temozolomide alone @ 100 uM, 100 µM); 14% and 15% in test [2] (Temozolomide alone @ 300 uM, 300 µM).

Consider arsenic trioxide, for which, in test [1], the “Inhibitory Concentration IC75” value came to 6.45 µM, the “Inhibitory Concentration IC25” value is 1.38 µM and the IC50 was 2.99 µM. Moreover, the “inhibition of AML proliferation” value in test [1] (drug alone 3 uM) came out at 97%. For the same compound, in test [1] (drug alone @ 3 uM), the “% Inhibition Avg” value is recorded as 97%, the “% Inhibition n1” value amounted to 97%, the “% Inhibition n2” value is reported as 97% and the “% Inhibition n3” value is on record as 97%. Also, in the test on AML cell line HL60 (HL60 AML cells), the IC50 worked out at 2.43 µM, the IC25 was 1.72 µM and the concentration for an effect of 75% (IC75) stood at 3.01 µM. In the test on AML cell line HL60 (dose-response curve, FIG. 35), this compound showed an IC50 of 2.3 µM.

In general, IC25 refers to the concentration at which the effect reaches the 25% level. Low readings indicate greater potency, high ones weaker potency. In general, IC75 refers to the point of the concentration-response curve where the effect stands at 75%. A low value points to greater potency.

The values above are taken from patent US20220233624A9, “ANTI-CANCER AND ANTI-PROLIFERATIVE COMPOSITIONS, AND METHODS FOR THEIR USE IN TREATING CANCER” (Natreon, Inc., priority 2020, published 2022).
